Measured values: PubChem BioAssay (NCI)
Where “and” joins values, the source holds several entries; their conditions need not be identical. Equal values may be shown once.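 Assay format: 96-well plates, 48-hour exposure. GI50 marks 50% less growth. TGI denotes the concentration required for complete inhibition of growth.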

Legend:
Assay in all cases: growth of human tumour cells (NCI), 48 h
MDA-MB-435 = tested on: MDA-MB-435
SNB-75 CNS = tested on: SNB-75 CNS
MOLT-4 leukemia = tested on: MOLT-4 leukemia
SW-620 colon = tested on: SW-620 colon
RXF 393 renal = tested on: RXF 393 renal
U251 CNS = tested on: U251 CNS
A498 renal = tested on: A498 renal
SK-MEL-2 melanoma = tested on: SK-MEL-2 melanoma
UO-31 renal = tested on: UO-31 renal
RPMI-8226 leukemia = tested on: RPMI-8226 leukemia

Structure (SMILES)	TGI (MDA-MB-435) [µM]	TGI (SNB-75 CNS) [µM]	TGI (MOLT-4 leukemia)	TGI (SW-620 colon) [µM]	TGI (RXF 393 renal)	TGI (U251 CNS)	TGI (A498 renal)	TGI (SK-MEL-2 melanoma) [µM]	TGI (UO-31 renal)	GI50 (MDA-MB-435) [µM]	GI50 (SNB-75 CNS)	GI50 (MOLT-4 leukemia) [µM]	GI50 (SW-620 colon) [µM]	GI50 (RXF 393 renal) [µM]	GI50 (A498 renal)	GI50 (SK-MEL-2 melanoma) [µM]	GI50 (UO-31 renal) [µM]	TGI (RPMI-8226 leukemia)	GI50 (RPMI-8226 leukemia) [µM]	GI50 (U251 CNS) [µM]
CN(N=O)c1ccc(/C=C/c2ccnc3ccccc23)cc1	> 100	> 100	> 100 µM	> 100	> 100 µM	> 100 µM	> 100 µM	> 100	> 100 µM	–	–	–	–	–	–	–	–	–	–	–
O=C1c2ccccc2-c2cn(Cc3ccccc3)c3cccc(c23)C1c1cccnc1 (centres undefined)	6.13	26	> 50 µM	> 50	> 50 µM	–	29.9 µM	> 50	> 50 µM	1.32	1.38 µM	3.2	1.88	8.1	1.34 µM	3.9	5.2	–	–	–
CO[C@H]1C[C@H](O[C@H]2CC[C@@]3(C)[C@H](CC[C@@H]4[C@@H]3CC[C@]3(C)[C@@H](C5=CC(=O)OC5)CC[C@]43O)C2)O[C@H](C)[C@H]1O	0.0974	0.17	–	0.113	0.0105 µM	0.0197 µM	0.0589 µM	0.0478	0.0217 µM	–	–	–	–	–	–	–	–	0.0427 µM	–	–
ClC/C=C/CSc1ncnc2nc[nH]c12	> 100	> 100	> 100 µM	> 100	> 100 µM	> 100 µM	> 100 µM	–	> 100 µM	> 100	> 100 µM	> 100	> 100	> 100	> 100 µM	–	> 100	> 100 µM	> 100	> 100
COC(=O)[C@]12CC[C@@H](C)[C@H](C)[C@@H]1C1=CC[C@@H]3[C@@]4(C)C[C@@H](OC(C)=O)[C@H](OC(C)=O)[C@@](C)(COC(C)=O)[C@@H]4[C@H](O)C[C@@]3(C)[C@]1(C)CC2	> 100	> 100	11.5 µM	> 100	61.4 µM	> 100 µM	68.5 µM	> 100	–	1.86	4.32 µM	0.901	0.892	6.88	1.92 µM	1.85	–	> 100 µM	1.04	0.86
COc1oc(C2C/C(=C/C(C)=C/C(C)=C/C(C)=C/c3ccc([N+](=O)[O-])cc3)CO2)c(C)c(=O)c1C (centres undefined)	42.4	> 57.5	10.2 µM	> 100	95.1 µM	31.5 µM	47.4 µM	> 75.8	27.5 µM	–	–	–	–	–	–	–	–	20.9 µM	–	–
C=C1C(C)C2C(Cc3ccccc3)NC(=O)C23C(OC(C)=O)C=CC(C)(O)C(=O)C(C)C/C=C/C3C1O (centres undefined)	> 414	–	78.3 µM and > 500 µM	> 500	1.55 µM and 1.04 µM	5.47 µM and 53.2 µM	1.47 µM and 13.9 µM	74.8	1.62 µM and 14.3 µM	2.32	0.0218 µM and 0.05 µM	17.9	> 500	0.0604	0.202 µM and 0.05 µM	–	–	65.5 µM and > 500 µM	3.9	–
CSc1ccc(-c2cn3ccsc3n2)cc1	> 100	74	> 100 µM	> 100	> 92 µM	> 100 µM	> 100 µM	> 92.9	> 100 µM	12.6	7.76 µM	5.48	14.6	5.19	55.6 µM	4	7.95	> 100 µM	9.2	7.65
NS(=O)(=O)c1cccc(Nc2cc(-c3ccc(F)cc3)[nH]n2)c1	> 25	> 25	> 25 µM	> 25	> 25 µM	> 25 µM	> 25 µM	> 25	> 25 µM	> 25	> 15.5 µM	> 25	> 23.2	17.8	18.4 µM	16.1	14.6	> 25 µM	> 25	16.5
COc1cc(F)c(F)c(Nc2ccc(I)cc2F)c1NS(=O)(=O)C1(CC(O)CO)CC1 (centres undefined)	22.3	49.2	52.3 µM	> 59.5	19.7 µM	39.9 µM	28.1 µM	18.8	40.2 µM	4.63	6.29 µM	15.2	13.6	5.78	10.1 µM	4.1	10.4	54.6 µM	16	15.2
COC(=O)C(=O)C(C(=O)C(=O)Nc1cc(C)ccc1C)c1nc2ccccc2[nH]c1=O (centres undefined)	> 100	> 100	> 100 µM	> 100	> 100 µM	> 100 µM	> 100 µM	> 100	> 100 µM	–	–	–	–	–	–	–	–	71.4 µM	–	–
COc1cc2c(c3oc4c(O)cccc4c(=O)c13)CC(C(C)(O)CCl)O2 (centres undefined)	1.55	8.18	–	3.74	2.43 µM	12.5 µM	37.3 µM	3.38	4.9 µM	–	–	–	–	–	–	–	–	0.655 µM	–	–
Oc1ccccc1/C=N\NC(=S)Nc1ccc(F)cc1	> 96.6	14.9	> 31.1 µM	> 100	65.8 µM	> 100 µM	49.3 µM	> 100	4.97 µM	0.404	1.66 µM	0.586	1.17	2.63	4.65 µM	5.96	0.472	–	1.34	0.639
CC/C(=C/c1ccc(OC)cc1)[N+](=O)[O-]	3.6	15	7.3 µM	3.85	3.39 µM	10.5 µM	9.09 µM	4.62	3.04 µM	1.68	2.83 µM	2.7	1.93	1.85	1.87 µM	2.02	1.42	5.31 µM	1.76	3.18
